Entries after “also recorded” stand apart in the source; their conditions may differ.
Experiments:
[1] = tested on: tachycardia caused by isoprotenenol; assay: β-lytic activity in vigile rat (antagonism of tachycardia caused by isoproterenol); type: in vivo; conditions: 10 mg/kg orally; isoproterenol 0.1 mg/kg transcutaneously
peripheral β2 receptors = assay: Cardioselectivity in vivo, anesthetised dog: peripheral β2 receptors; conditions: 30 μg/kg i.v.
[2] = tested on: β1 cardiac receptors versus β2 tracheal receptors; assay: Cardioselectivity (auricles versus trachea); parameters: species or system guinea pig
Protocol: (§1) The effect on β1 cardiac receptors is measured by inhibition of the chronotropic response to noradrenaline of guinea pig auricles and of the inotrope response to isoproterenol of guinea pig left auricles which were electrically stimulated. The cardioselectivity is appreciated by measuring the antagonist effect at the level of β2 receptors of the guinea pig trachea. To this end, a tracheal chain is contracted by a maximum concentration of histamine and inhibition of relaxation by isoproterenol is measured. The values calculated for cardioselectivity are obtained by considering the difference between pA2 values of the chronotrope response and the relaxation on the one hand (1st column) and of the inotrope response and relaxation on the other hand (2nd column). For these various experiences, pA2 is calculated according to the Van Rossum method (Arch. Inern. Pharmacodyn., 143, 299-330, 1963).

cardiac receptors = assay: Cardioselectivity in vivo, anesthetised dog: cardiac receptors; conditions: 30 μg/kg i.v.
[3] = tested on: guinea pig ileum contractions induced by histamine; assay: Antispasmodic activity against ileum contractions induced by histamine
Protocol: (§2) The antispasmodic activity of the studied substances was examined against guinea pig ileum contractions induced by histamine and acetylcholine.
(§3) These experiences allow to make it obvious an antihistaminic, anticholinergic or musculotrope activity. The response to the contracting agent (sub-maximum concentration) is obtained every 5 minutes before and after injection of increasing concentrations of tested products (10^-7 M to 10^-4 M). The inhibition percentage under the influence of tested products is calculated and the theoretical concentration giving 50% of inhibition is graphically determined for each experience. These values are expressed in -log CI50 (M).

[4] = tested on: chronotropic response to noradrenaline of isolated guinea pig auricles; assay: β-lytic effect on the chronotropic response to noradrenaline of isolated auricles
Protocol: (§4) The β-lytic effect was searched on the chronotropic response to noradrenaline of isolated guinea pig auricles. Auricles were incubated for 20 minutes in a Tyrode solution at 29° C. in the presence of the substance to be tested at the concentration of 10^-6 M. A positive (+) or negative (-) chronotrope effect of the substance was noted using the following scores:
Then, the chronotrope effect of cumulative increasing concentrations of noradrenaline was recorded. The pD2 (-log CE50) value was calculated. A score of β-lytic activity of the substance was given as follows:
If the score at concentration of 10^-6 M was 3 or 4, the effect of the substance was examined at concentration of 10^-7 M and a score was recorded according to the same procedure.

[5] = Antihypertensive activity, oral, unanesthetized spontaneously hypertensive rats; type: in vivo; conditions: 60 mg/kg oral
Protocol: […] Only rats having a systolic pressure of 180 to 220 mm Hg are used. Two rats are used by product. The treatments are administered without the knowledge of the person making the measure.
The antihypertensive effects were recorded according to a score followed by an index. The scoring system is as follows.
The index is calculated by multiplying the systolic pressure difference (cmHg) measured every 30 minutes after the treatment, by a coefficient of 1 to 6 corresponding to times of 30 to 180 minutes.

[6] = tested on: guinea pig ileum contractions induced by acetylcholine; assay: Antispasmodic activity against ileum contractions induced by acetylcholine
Protocol: as §2, §3

[7] = tested on: isolated guinea pig auricles; assay: Chronotrope effect of the substance on isolated auricles; conditions: 10^-6 M, 20 minutes, Tyrode, 29° C.
Protocol: as §4, with “scores: […]” for “scores:”

[8] = LD50 in mice, oral (Lichtfield and Wilcoxon method); type: in vivo; conditions: mouse, in vivo, po, read-out: LD50
Protocol: LD50 were determined according to the Lichtfield and Wilcoxon method (J. Pharmacol. Exp. Ther. 96, 99, 1949) and expressed in mg/kg. The products were administered to mice orally.

β1 cardiac receptors [9] = target: T1, β1 cardiac receptors (Cavia porcellus, UniProt H0W3H1); assay: β-lytic activity: inhibition of inotrope response to isoproterenol of electrically stimulated left auricles (pA2); parameters: species or system guinea pig; conditions: isoproterenol, electrically stimulated left auricles; read-out: β-lytic activity, pA2 auricles inotrope response (converted)
T1 construct: chronotropic response to noradrenaline of guinea pig auricles; from tissue; host or cells: guinea pig auricles (chronotropic response); electrically stimulated guinea pig left auricles (inotropic response)
Protocol: as §1, with “column).” for “column). For these various experiences, pA2 is calculated according to the Van Rossum method (Arch. Inern. Pharmacodyn., 143, 299-330, 1963).”

β1 cardiac receptors [10] = target: T1, β1 cardiac receptors; assay: β-lytic activity: inhibition of chronotropic response to noradrenaline of auricles (pA2); parameters: species or system guinea pig
Protocol: as §1, with “column).” for “column). For these various experiences, pA2 is calculated according to the Van Rossum method (Arch. Inern. Pharmacodyn., 143, 299-330, 1963).”

[11] = target: T2, β2 receptors of the guinea pig trachea (Cavia porcellus, UniProt Q8K4Z4); assay: Antagonist effect on relaxation of trachea by isoproterenol (pA2); conditions: histamine-contracted tracheal chain, read-out: β-lytic activity, pA2 trachea relaxation (converted)
T2 construct: β2 receptors of the guinea pig trachea; from tissue; host or cells: guinea pig tracheal chain contracted by histamine
Protocol: as §1, with “column).” for “column). For these various experiences, pA2 is calculated according to the Van Rossum method (Arch. Inern. Pharmacodyn., 143, 299-330, 1963).”

platelet agglutination = assay: Inhibition of platelet agglutination in plasma (turbidimetric method, Thrombofax); type: cell-based; conditions: plasma rich in platelets, preincubated 4 minutes
Protocol: The measure of platelet agglutination inhibition was made according to the turbidimetric method of G. V. R. Born and M. J. Cross (J. Physiol., 168, 178, […]). The plasma rich in platelets was preincubated for 4 minutes before addition of the inducing agent, namely Thrombofax. The variations of turbidity were recorded for a period of 10 minutes with a "Chronolog" agglutinometer. The inhibition of the maximum amplitude of agglutination was measured.

T1 sequence (H0W3H1 1-470): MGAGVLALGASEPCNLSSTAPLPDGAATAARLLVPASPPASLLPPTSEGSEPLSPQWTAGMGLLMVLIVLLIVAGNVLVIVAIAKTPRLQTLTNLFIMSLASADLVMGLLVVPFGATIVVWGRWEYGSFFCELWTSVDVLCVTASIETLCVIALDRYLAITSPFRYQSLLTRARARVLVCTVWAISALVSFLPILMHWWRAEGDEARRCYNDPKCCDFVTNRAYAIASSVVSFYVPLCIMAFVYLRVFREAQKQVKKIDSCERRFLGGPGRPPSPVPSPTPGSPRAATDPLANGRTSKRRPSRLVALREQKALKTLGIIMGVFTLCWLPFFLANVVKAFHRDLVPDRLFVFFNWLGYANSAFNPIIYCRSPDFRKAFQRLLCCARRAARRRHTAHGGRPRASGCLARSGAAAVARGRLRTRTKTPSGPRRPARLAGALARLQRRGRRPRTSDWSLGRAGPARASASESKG
T2 sequence (Q8K4Z4 whole entry): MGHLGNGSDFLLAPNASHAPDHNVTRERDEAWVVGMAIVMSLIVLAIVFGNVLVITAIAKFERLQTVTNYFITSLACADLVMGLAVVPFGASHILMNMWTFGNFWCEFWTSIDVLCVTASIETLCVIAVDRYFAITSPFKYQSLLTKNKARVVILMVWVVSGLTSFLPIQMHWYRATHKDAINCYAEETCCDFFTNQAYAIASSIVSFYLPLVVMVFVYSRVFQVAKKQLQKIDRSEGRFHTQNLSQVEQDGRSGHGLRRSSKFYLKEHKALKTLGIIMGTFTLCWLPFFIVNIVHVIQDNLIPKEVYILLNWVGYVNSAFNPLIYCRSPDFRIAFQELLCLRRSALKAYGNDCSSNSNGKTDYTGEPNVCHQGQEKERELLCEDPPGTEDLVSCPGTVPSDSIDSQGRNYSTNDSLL

For `CC(C)NCC(O)COc1ccc(-c2nc3ccccc3[nH]2)cc1` (stereo not shown) [Compound 1, 2-[4-(3-isopropylamino-2-hydroxypropoxy)phenyl]benzimidazole], the “β-lytic activity in vigile rat” value [1] was “demonstrated”, the “Effect on stimulation of peripheral β2 receptors” value (peripheral β2 receptors) was “without affecting that of peripheral β2 receptors” and the Cardioselectivity ([2]; Table III, from pA2 auricles and trachea) was 1.73. For the same molecule, the “times more active on β cardiac receptors than on β2 receptors” value ([2]; from difference of pA2 on auricles and trachea) was 2140 times, the “Cardioselectivity (in words)” value ([2]; guinea pig auricles vs trachea) was “important cardioselectivity; also recorded: much higher than that of metopropol and atenolol” and the “Blocking of stimulation of cardiac receptors” value (cardiac receptors) was “blocks stimulation of cardiac receptors”. For the same molecule, the “Antispasmodic activity, Hist. (-log CI50 (M))” value [3] was 5.18 -log CI50 (M), the “β-lytic effect (score)” value ([4]; 10^-6 M) was 3 (if 6.00≥pD2 ≥5.51) and the “β-lytic effect (score)” value ([4]; 10^-7 M) was 2 (if 6.40≥pD2 ≥6.01). For the same molecule, the “Antihypertensive activity (score)” value ([5]; spontaneously hypertensive rats) was “++++ (reduction>50 mm Hg)”, the “Antihypertensive activity (index)” value ([5]; systolic pressure difference (cmHg) every 30 min multiplied by time coefficient 1 to 6) was 174 and the “Antispasmodic activity, Ac. Chol. (-log CI50 (M))” value [6] was 5.21 -log CI50 (M). For the same molecule, the “Chronotrope effect (score)” value [7] was 0 (if the frequency modification was comprised between +6 and -6), the LD50 [8] was 2300 mg/kg and the Kb (β1 cardiac receptors [9]) was 35.5 nM. For the same molecule, the “Activity on β cardiac receptors (in words)” value (β1 cardiac receptors [10]) was “active β-agents on β cardiac receptors”, the Kb (β1 cardiac receptors [10]; noradrenaline, read-out: β-lytic activity, pA2 auricles chronotrope response (converted)) was 13.5 nM and the Kb [11] was 28800 nM. For the same molecule, the “Inhibition of platelet agglutination” value (platelet agglutination) was “active”.

Reference: patent publication US4338330A, “Benzimidazole derivatives, their use, and compositions containing these derivatives” (Continental Pharma, priority 1979, dated 1982)
